Source: PubChem BioAssay AID1963977 (Molecular Pharmacology Branch, DTP, NCI, 2024)

Tested on: 624824-186-R-J3-PDC multicell spheroids, viability
Assay: Anticancer human tumor 624824-186-R-J3-PDC patient-derived colon adenocarcinoma cell line growth inhibition [PI3K]
Conditions: for IC50: curve of first compound; for viability, T/C: stronger effect = lower value
Procedure, shortened: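 Combination activity was assessed by viability in multicellular tumor spheroids carrying HUVEC and MSC components. Agents were tested with PI3K inhibitors from a Cmax-based top dose (or 10 microM) downward in half-log increments.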

[1] = second compound 0.0316 µM, first compound 0.0316 µM
[2] = second compound 0.0316 µM, first compound 0.1 µM
[3] = second compound 0.0316 µM, first compound 0.316 µM
[4] = second compound 0.0316 µM, first compound 1 µM
[5] = second compound 0.0316 µM, first compound 3.16 µM
[6] = second compound 0.0316 µM, first compound 10 µM
[7] = second compound 0.1 µM, first compound 0.0316 µM
[8] = second compound 0.1 µM, first compound 0.1 µM
[9] = second compound 0.1 µM, first compound 0.316 µM
[10] = second compound 0.1 µM, first compound 1 µM
[11] = second compound 0.1 µM, first compound 3.16 µM
[12] = second compound 0.1 µM, first compound 10 µM
[13] = second compound 0.316 µM, first compound 0.0316 µM
[14] = second compound 0.316 µM, first compound 0.1 µM
[15] = second compound 0.316 µM, first compound 0.316 µM
[16] = second compound 0.316 µM, first compound 1 µM
[17] = second compound 0.316 µM, first compound 3.16 µM
[18] = second compound 0.316 µM, first compound 10 µM
[19] = second compound 1 µM, first compound 0.0316 µM
[20] = second compound 1 µM, first compound 0.1 µM
[21] = second compound 1 µM, first compound 0.316 µM
[22] = second compound 1 µM, first compound 1 µM
[23] = second compound 1 µM, first compound 3.16 µM
[24] = second compound 1 µM, first compound 10 µM
[25] = second compound 0.00316 µM, first compound 0.0316 µM
[26] = second compound 0.00316 µM, first compound 0.1 µM
[27] = second compound 0.00316 µM, first compound 0.316 µM
[28] = second compound 0.00316 µM, first compound 1 µM
[29] = second compound 0.00316 µM, first compound 3.16 µM
[30] = second compound 0.00316 µM, first compound 10 µM
[31] = second compound 0.01 µM, first compound 0.0316 µM
[32] = second compound 0.01 µM, first compound 0.1 µM
[33] = second compound 0.01 µM, first compound 0.316 µM
[34] = second compound 0.01 µM, first compound 1 µM
[35] = second compound 0.01 µM, first compound 3.16 µM
[36] = second compound 0.01 µM, first compound 10 µM
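Note: spheroids exposed to agents for seven days before luminescence read.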
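Throughout, for viability, T/C: luminescent signal used as a stand-in for spheroid viability; percent viability relative to DMSO vehicle control wells taken as 100%.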

CC1(C)CCC(CN2CCN(c3ccc(C(=O)NS(=O)(=O)c4ccc(NCC5CCOCC5)c([N+](=O)[O-])c4)c(Oc4cnc5[nH]ccc5c4)c3)CC2)=C(c2ccc(Cl)cc2)C1 + CC(Nc1ncnc2nc[nH]c12)c1cc2cccc(Cl)c2c(=O)n1-c1ccccc1
IC50 (second compound 0.0316 µM): 7.77 µM
IC50 (second compound 0.1 µM): 7.33 µM
IC50 (second compound 0.316 µM): 8.72 µM
IC50 (second compound 1 µM): 7.87 µM
IC50 (second compound 3.16 µM): 8.48 µM
IC50 (second compound 10 µM): 9 µM
viability, T/C [1]: 112%
viability, T/C [2]: 94.8%
viability, T/C [3]: 116%
viability, T/C [4]: 96.7%
viability, T/C [5]: 106%
viability, T/C [6]: 34.5%
viability, T/C [7]: 103%
viability, T/C [8]: 92.4%
viability, T/C [9]: 91.4%
viability, T/C [10]: 90.1%
viability, T/C [11]: 111%
viability, T/C [12]: 32.5%
viability, T/C [13]: 110%
viability, T/C [14]: 114%
viability, T/C [15]: 108%
viability, T/C [16]: 106%
viability, T/C [17]: 117%
viability, T/C [18]: 41.6%
viability, T/C [19]: 97.9%
viability, T/C [20]: 111%
viability, T/C [21]: 112%
viability, T/C [22]: 99.2%
viability, T/C [23]: 117%
viability, T/C [24]: 35%
viability, T/C (second compound 3.16 µM, first compound 0.0316 µM): 109%
viability, T/C (second compound 3.16 µM, first compound 0.1 µM): 97.2%
viability, T/C (second compound 3.16 µM, first compound 0.316 µM): 102%
viability, T/C (second compound 3.16 µM, first compound 1 µM): 111%
viability, T/C (second compound 3.16 µM, first compound 3.16 µM): 125%
viability, T/C (second compound 3.16 µM, first compound 10 µM): 40.1%
viability, T/C (second compound 10 µM, first compound 0.0316 µM): 88.6%
viability, T/C (second compound 10 µM, first compound 0.1 µM): 95.3%
viability, T/C (second compound 10 µM, first compound 0.316 µM): 94.6%
viability, T/C (second compound 10 µM, first compound 1 µM): 93.8%
viability, T/C (second compound 10 µM, first compound 3.16 µM): 108%
viability, T/C (second compound 10 µM, first compound 10 µM): 45.3%

CC(C)NCC(C(=O)N1CCN(c2ncnc3c2C(C)CC3O)CC1)c1ccc(Cl)cc1 (stereo unspecified) + CC(Nc1ccc2c(c1)OCCn1cc(N3C(=O)OCC3C(F)F)nc1-2)C(N)=O
IC50 (second compound 0.00316 µM): 6.8 µM
IC50 (second compound 0.01 µM): 7.52 µM
IC50 (second compound 0.0316 µM): 5.35 µM
IC50 (second compound 0.1 µM): 7.68 µM
IC50 (second compound 0.316 µM): 4.24 µM
IC50 (second compound 1 µM): 3.44 µM
viability, T/C [25]: 107%
viability, T/C [26]: 96.8%
viability, T/C [27]: 97.7%
viability, T/C [28]: 73.1%
viability, T/C [29]: 59.9%
viability, T/C [30]: 45.4%
viability, T/C [31]: 98.3%
viability, T/C [32]: 96.8%
viability, T/C [33]: 99.4%
viability, T/C [34]: 72%
viability, T/C [35]: 63.8%
viability, T/C [36]: 45.3%
viability, T/C [1]: 96.2%
viability, T/C [2]: 93.4%
viability, T/C [3]: 91.6%
viability, T/C [4]: 77.4%
viability, T/C [5]: 57.2%
viability, T/C [6]: 41.7%
viability, T/C [7]: 108%
viability, T/C [8]: 94.1%
viability, T/C [9]: 88.1%
viability, T/C [10]: 83.7%
viability, T/C [11]: 59.5%
viability, T/C [12]: 46.4%
viability, T/C [13]: 96.2%
viability, T/C [14]: 91.8%
viability, T/C [15]: 94.4%
viability, T/C [16]: 72.5%
viability, T/C [17]: 54.2%
viability, T/C [18]: 41.9%
viability, T/C [19]: 92%
viability, T/C [20]: 88.8%
viability, T/C [21]: 86.1%
viability, T/C [22]: 65%
viability, T/C [23]: 53.6%
viability, T/C [24]: 35.1%

CNC(=O)c1ccc(N2C(=S)N(c3ccc(C#N)c(C(F)(F)F)c3)C(=O)C2(C)C)cc1F + CC(Nc1ccc2c(c1)OCCn1cc(N3C(=O)OCC3C(F)F)nc1-2)C(N)=O
IC50 (second compound 0.00316 µM): > 10 µM
IC50 (second compound 0.01 µM): > 10 µM
IC50 (second compound 0.0316 µM): > 10 µM
IC50 (second compound 0.1 µM): > 10 µM
IC50 (second compound 0.316 µM): > 10 µM
IC50 (second compound 1 µM): > 10 µM
viability, T/C [25]: 105%
viability, T/C [26]: 104%
viability, T/C [27]: 104%
viability, T/C [28]: 87.4%
viability, T/C [29]: 97%
viability, T/C [30]: 106%
viability, T/C [31]: 103%
viability, T/C [32]: 101%
viability, T/C [33]: 108%
viability, T/C [34]: 97.1%
viability, T/C [35]: 96.1%
viability, T/C [36]: 99.1%
viability, T/C [1]: 95.4%
viability, T/C [2]: 104%
viability, T/C [3]: 102%
viability, T/C [4]: 97.3%
viability, T/C [5]: 99.5%
viability, T/C [6]: 99.6%
viability, T/C [7]: 99.6%
viability, T/C [8]: 101%
viability, T/C [9]: 103%
viability, T/C [10]: 101%
viability, T/C [11]: 109%
viability, T/C [12]: 80.3%
viability, T/C [13]: 89.4%
viability, T/C [14]: 90%
viability, T/C [15]: 94.2%
viability, T/C [16]: 97.8%
viability, T/C [17]: 92%
viability, T/C [18]: 82%
viability, T/C [19]: 90.6%
viability, T/C [20]: 89.2%
viability, T/C [21]: 95.8%
viability, T/C [22]: 90.5%
viability, T/C [23]: 88.9%
viability, T/C [24]: 76.4%
